Several values for one entry are separate records, joined by “and”; a condition that tells them apart may be missing. Equal entries are not always repeated. Entries after “also recorded” stand apart in the source; their conditions may differ. Where two headings read alike, the source gives them in different places.
Experiments:
[1] = biological target: T1, mouse NMBR (Mus musculus, UniProt O54799); assay: Binding studies, mNMBR/BALB cells
T1 sequence (O54799 1-390): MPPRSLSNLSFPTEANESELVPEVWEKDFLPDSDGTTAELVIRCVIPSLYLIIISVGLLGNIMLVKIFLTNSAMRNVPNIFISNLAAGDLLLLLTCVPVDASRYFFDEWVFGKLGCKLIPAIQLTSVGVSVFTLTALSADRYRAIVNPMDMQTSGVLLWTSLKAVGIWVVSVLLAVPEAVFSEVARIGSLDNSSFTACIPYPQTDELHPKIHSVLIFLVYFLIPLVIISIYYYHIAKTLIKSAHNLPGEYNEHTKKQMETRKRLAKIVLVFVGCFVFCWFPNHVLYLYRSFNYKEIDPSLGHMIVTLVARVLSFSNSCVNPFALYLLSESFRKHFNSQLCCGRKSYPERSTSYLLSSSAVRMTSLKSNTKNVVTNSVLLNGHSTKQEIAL

[2] = biological target: T2, human BRS-3 (Homo sapiens, UniProt P32247); assay: Binding studies, inhibition of 125I-[D-Tyr6,β-Ala11,Phe13,Nle14]Bn-
T2 sequence (P32247 1-399): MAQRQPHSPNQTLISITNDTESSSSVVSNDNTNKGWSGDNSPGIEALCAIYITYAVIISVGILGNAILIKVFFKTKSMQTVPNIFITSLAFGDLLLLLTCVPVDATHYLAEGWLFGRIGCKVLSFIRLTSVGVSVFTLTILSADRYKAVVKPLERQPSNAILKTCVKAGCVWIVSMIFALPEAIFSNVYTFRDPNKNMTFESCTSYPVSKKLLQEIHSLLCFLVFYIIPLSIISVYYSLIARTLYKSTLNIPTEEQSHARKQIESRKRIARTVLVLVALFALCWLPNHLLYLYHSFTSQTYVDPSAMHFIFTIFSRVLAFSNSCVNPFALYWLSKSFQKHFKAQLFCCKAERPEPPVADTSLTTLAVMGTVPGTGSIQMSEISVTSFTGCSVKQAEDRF

[3] = biological target: T3, rat NMBR (Rattus norvegicus, UniProt P24053); assay: Binding studies, rNMBR/BALB cells
T3 sequence (P24053 1-390): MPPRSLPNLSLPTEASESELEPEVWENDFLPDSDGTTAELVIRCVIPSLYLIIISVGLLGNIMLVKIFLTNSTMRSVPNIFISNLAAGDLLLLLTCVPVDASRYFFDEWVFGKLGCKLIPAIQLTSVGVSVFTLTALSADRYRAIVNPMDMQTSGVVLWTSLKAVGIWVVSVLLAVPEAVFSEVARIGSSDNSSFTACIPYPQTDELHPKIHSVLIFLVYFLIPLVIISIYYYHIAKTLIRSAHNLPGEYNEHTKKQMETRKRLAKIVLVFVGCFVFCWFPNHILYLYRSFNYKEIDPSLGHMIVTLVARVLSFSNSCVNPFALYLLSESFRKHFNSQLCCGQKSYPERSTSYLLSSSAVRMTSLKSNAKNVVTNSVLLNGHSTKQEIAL

[4] = biological target: T4, human GRPR (Homo sapiens, UniProt P30550); assay: [3H]Inositol phosphate generation, hGRPR/BALB cells; assay type: cell-based
T4 sequence (P30550 whole entry): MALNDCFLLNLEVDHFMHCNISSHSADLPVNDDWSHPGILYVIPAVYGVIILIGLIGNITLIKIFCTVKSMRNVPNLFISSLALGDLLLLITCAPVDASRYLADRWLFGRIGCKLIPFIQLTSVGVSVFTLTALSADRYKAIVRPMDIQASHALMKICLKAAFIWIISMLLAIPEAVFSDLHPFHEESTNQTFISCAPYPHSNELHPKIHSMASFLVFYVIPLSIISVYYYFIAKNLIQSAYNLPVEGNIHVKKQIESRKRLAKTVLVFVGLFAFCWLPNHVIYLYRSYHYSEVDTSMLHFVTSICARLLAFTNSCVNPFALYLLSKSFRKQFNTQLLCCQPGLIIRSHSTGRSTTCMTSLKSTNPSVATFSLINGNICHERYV

[5] = biological target: T5, rat GRPR (Rattus norvegicus, UniProt P52500); assay: Binding studies, rGRPR/AR42J cells
T5 sequence (P52500 whole entry): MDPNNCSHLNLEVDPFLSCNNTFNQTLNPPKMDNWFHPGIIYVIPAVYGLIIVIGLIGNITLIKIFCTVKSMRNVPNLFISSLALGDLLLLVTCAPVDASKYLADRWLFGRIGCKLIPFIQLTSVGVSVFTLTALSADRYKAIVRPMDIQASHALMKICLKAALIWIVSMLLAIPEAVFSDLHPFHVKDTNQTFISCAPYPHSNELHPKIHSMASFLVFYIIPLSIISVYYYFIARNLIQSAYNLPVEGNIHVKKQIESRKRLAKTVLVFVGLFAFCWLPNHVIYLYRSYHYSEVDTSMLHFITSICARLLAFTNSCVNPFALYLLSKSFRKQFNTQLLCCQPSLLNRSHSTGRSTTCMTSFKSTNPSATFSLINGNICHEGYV

[6] = biological target: T3, rat NMBR; assay: [3H]Inositol phosphate generation, rNMBR/BALB cells; assay type: cell-based
[7] = biological target: T5, rat GRPR; assay: [3H]Inositol phosphate generation, rGRPR/AR42J cells; assay type: cell-based
[8] = biological target: T6, human NMBR (Homo sapiens, UniProt P28336); assay: Binding studies, hNMBR/BALB cells
T6 sequence (P28336 whole entry): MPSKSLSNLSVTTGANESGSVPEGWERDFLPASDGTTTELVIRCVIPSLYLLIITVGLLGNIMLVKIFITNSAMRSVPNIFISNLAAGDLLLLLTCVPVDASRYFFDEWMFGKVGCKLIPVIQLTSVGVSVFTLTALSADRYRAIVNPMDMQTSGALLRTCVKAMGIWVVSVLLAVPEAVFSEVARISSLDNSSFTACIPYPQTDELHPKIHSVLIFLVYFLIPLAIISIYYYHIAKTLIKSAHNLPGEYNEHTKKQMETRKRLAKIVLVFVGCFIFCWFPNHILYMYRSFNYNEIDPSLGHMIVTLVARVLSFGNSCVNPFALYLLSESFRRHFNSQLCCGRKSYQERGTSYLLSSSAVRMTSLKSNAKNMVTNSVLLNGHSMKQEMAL

[9] = biological target: T7, rat BRS-3 (Rattus norvegicus, UniProt Q8K418); assay: [3H]Inositol phosphate generation, rBRS-3/BALB cells; assay type: cell-based
T7 sequence (Q8K418 1-399): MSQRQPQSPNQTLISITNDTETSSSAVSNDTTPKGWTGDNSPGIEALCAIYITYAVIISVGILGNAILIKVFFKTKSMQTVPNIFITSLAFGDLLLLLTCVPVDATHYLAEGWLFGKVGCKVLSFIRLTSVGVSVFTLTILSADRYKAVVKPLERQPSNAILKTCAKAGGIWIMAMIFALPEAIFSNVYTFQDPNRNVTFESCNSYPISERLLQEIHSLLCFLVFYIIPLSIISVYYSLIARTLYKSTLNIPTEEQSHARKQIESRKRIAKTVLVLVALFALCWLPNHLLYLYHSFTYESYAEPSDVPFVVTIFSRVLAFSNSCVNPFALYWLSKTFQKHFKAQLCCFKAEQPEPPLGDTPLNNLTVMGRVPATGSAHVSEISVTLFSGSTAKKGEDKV

[10] = biological target: T4, human GRPR; assay: Binding studies, hGRPR/BALB cells
[11] = biological target: T8, mouse GRPR (Mus musculus, UniProt P21729); assay: [3H]Inositol phosphate generation, mGRPR/BALB cells; assay type: cell-based
T8 sequence (P21729 whole entry): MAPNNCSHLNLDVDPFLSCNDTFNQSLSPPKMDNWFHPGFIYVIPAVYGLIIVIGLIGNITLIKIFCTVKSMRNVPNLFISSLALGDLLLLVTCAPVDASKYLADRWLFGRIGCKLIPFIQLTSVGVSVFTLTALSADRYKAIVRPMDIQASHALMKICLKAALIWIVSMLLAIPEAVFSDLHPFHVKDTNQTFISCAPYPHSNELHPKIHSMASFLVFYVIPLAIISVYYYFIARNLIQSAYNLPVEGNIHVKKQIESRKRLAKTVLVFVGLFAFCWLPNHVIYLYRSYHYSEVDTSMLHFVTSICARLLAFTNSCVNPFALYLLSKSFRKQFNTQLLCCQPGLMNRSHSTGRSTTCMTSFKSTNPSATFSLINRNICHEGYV

[12] = biological target: T6, human NMBR; assay: [3H]Inositol phosphate generation, hNMBR/BALB cells; assay type: cell-based
[13] = biological target: T2, human BRS-3; assay: [3H]Inositol phosphate generation; assay type: cell-based
[14] = biological target: T8, mouse GRPR; assay: Binding studies, mGRPR/BALB cells
[15] = biological target: T1, mouse NMBR; assay: [3H]Inositol phosphate generation, mNMBR/BALB cells; assay type: cell-based
[16] = biological target: T9, mouse BRS-3 (Mus musculus, UniProt O54798); assay: [3H]Inositol phosphate generation, mBRS-3/BALB cells; assay type: cell-based
T9 sequence (O54798 1-399): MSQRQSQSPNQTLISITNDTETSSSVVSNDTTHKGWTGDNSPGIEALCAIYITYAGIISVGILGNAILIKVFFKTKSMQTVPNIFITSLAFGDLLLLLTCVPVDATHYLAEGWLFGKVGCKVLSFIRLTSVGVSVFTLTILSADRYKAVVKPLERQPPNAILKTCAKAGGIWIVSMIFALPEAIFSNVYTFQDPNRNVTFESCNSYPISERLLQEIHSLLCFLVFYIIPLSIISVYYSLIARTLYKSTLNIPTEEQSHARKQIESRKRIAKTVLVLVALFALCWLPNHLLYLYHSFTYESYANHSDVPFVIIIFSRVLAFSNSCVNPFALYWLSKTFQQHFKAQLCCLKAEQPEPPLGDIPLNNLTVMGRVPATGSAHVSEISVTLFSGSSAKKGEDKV

SMILES | IC50 [1] [nM] | IC50 [2] [nM] | IC50 [3] [nM] | EC50 [4] [nM] | IC50 [5] [nM] | IC50 [8] [nM] | EC50 [9] [nM] | IC50 [10] [nM] | EC50 [11] [nM] | EC50 [13] [nM] | IC50 [14] [nM] | EC50 [16] [nM] | other results
O[C@@](Cc1nc(CC2(C(F)(F)F)CC2)c[nH]1)(c1ccc(-n2cccn2)cc1)C(F)(F)F [MK-5046, (2S)-1,1,1-trifluoro-2-[4-(1H-pyrazol-1-yl)phenyl]-3-(4-[[1-(trifluoromethyl)cyclopropyl]methyl]-1H-imidazol-2-yl)propan-2-ol] | > 3000 | 102 ± 2 | > 3000 | > 3000 | > 3000 | > 3000 | 0.23 ± 0.08 | > 3000 | > 3000 | 8.7 ± 0.47 | > 3000 | 5.24 ± 0.36 | EC50 [6]: > 3000 nM; EC50 [7]: > 3000 nM; maximal stimulation of [3H]IP ([9]; rBRS-3/BALB cells, 1 μM, n=7): 21,812 ± 1,721 dpm; more potent in rBRS-3 than in hBRS-3 ([9]; rBRS-3 versus hBRS-3): 38 fold; more potent in rBRS-3 than in mBRS-3 ([9]; rBRS-3 versus mBRS-3): 22 fold; efficacy for activating PLC ([9]; rat BRS-3 cells): full efficacious; also recorded: fully efficacious; increase on activating PLC ([9]; rat BRS-3 containing cells): 5.8 fold; EC50 [12]: > 3000 nM; IC50/ EC50 hBRS-3/BALB ([13]; binding IC50 over [3H]IP EC50, hBRS-3/BALB cells, measure of receptor spareness): 11.7 and 11.72; maximal stimulated [3H]IP value ([13]; hBRS-3/BALB cells, 1 μM, n=13): 70,268 ± 4,912 dpm; efficacy for activating PLC ([13]; human BRS-3 cells): full efficacious; also recorded: fully efficacious; increase on activating PLC ([13]; human BRS-3 containing cells): 3.8 fold; EC50 [15]: > 3000 nM; maximal stimulation of [3H]IP ([16]; mBRS-3/BALB cells, 1 μM, n=3): 62,992 ± 9,298 dpm; efficacy for activating PLC ([16]; mouse BRS-3 cells): full efficacious; also recorded: fully efficacious; increase on activating PLC ([16]; mouse BRS-3 containing cells): 3.9 fold
CSCC[C@H](NC(=O)[C@H](Cc1ccccc1)NC(=O)[C@H](Cc1c[nH]cn1)NC(=O)CNC(=O)[C@@H](NC(=O)[C@H](C)NC(=O)[C@H](Cc1c[nH]c2ccccc12)NC(=O)[C@H](CC(C)C)NC(=O)[C@H](CC(N)=O)NC(=O)CN)[C@@H](C)O)C(N)=O [NMB, neuromedin B] | 0.6 ± 0.02 | > 3000 | 1.21 ± 0.15 | 530 ± 23 | 80 ± 5 | 0.6 ± 0.02 | > 3000 | 31.5 ± 2.4 | 23 ± 8 | > 3000 | 170 ± 5 | > 3000 | lower affinity for rGRPR than for rNMBR ([5]; rat receptors): 66 fold; EC50 ([6]; EC50 Rat NMBR rNMBR/BALB, [3H]IP production, 60 min, 37°C): 1.6 nM and 1.59 nM; EC50 ([7]; EC50 Rat GRPR rGRPR/AR42J, [3H]IP production, 60 min, 37°C): 17 nM; EC50 ([12]; EC50 Human NMBR hNMBR/BALB, [3H]IP production, 60 min, 37°C): 2.5 nM and 2.52 nM; EC50 ([15]; EC50 Mouse NMBR mNMBR/BALB, [3H]IP production, 60 min, 37°C): 4.7 nM and 4.73 nM
